{"source": "patent US20240269120A1", "about": "“Method for Treating an Autoimmune and Inflammatory Disease” (Cellestia Biotech AG, priority 2021, published 2024)", "key": {"Treg cells": {"tested_on": "Treg cells", "assay": "Treg expansion in activated mouse splenocytes in vitro", "format": "cell-based", "conditions": "mouse splenocytes stimulated with anti-CD3 and anti-CD28 for 96 hours; FIG. 1", "method": "Mouse splenocytes were harvested and single cell suspension stimulated in vitro with anti-CD3 and anti-CD28 antibodies for 96 hours. Treatment with 6-(4-tert-butylphenoxy)pyridin-3-amine, during the same interval of time, caused an expansion of immunosuppressive regulatory T cells (Tregs). Each bar represents the mean±SD (N=3 replicates).\nHuman PBMCs and mouse splenocyte in vitro stimulation and treatment: Human peripheral blood mononuclear cells (PBMCs) and mouse splenocytes from donors were stimulated in vitro with anti-CD3 and anti-CD28 antibodies. The stimulated cells were simultaneously treated with compounds for 96 hours. The T cells were profiled for different cell surface and intracellular markers and proliferation by flow cytometry.\nFlow cytometry analysis: Flow cytometry analysis was performed to quantify cell surface and intracellular markers expression and measure cell division index.\nViability staining: Cells were transferred into a 96 well conical bottom plate and washed with serum free PBS1×. Cells were incubated with Zombie NIR (Biolegend #423105)+FC block ([…]) for 20 minutes at 4° C. […]\nFOXP3 nuclear staining: Cells were fixed and permeabilized with Foxp3 Transcription Factor Staining Buffer Set (ThermoFisher #00-5523) for 20 minutes at room temperature. […] Results are finally analysed with the software FlowJo v.10.7.1."}, "IL-6": {"tested_on": "IL-6", "assay": "Cytokine profiling in human patient plasma (MSD): IL-6", "format": "in vivo", "conditions": "human patients, day 3 on treatment vs baseline pre-treatment", "method": "Cytokine profiling in human plasma samples: Plasma samples from patients treated with 6-(4-tert-butylphenoxy)pyridin-3-amine were collected and stored at −80° C. until analysed. Cytokine and chemokine profiling was performed using MesoScale Discovery (MSD) platform and three assay panels: 1) Pro-inflammatory panel human, 2) Human IL-6 assay S-Plex, 3) Human IL-10 assay S-Plex."}, "[1]": {"tested_on": "irradiated Balb/c mice transplanted with TCD-BM + splenocytes from C57Bl6 mice (GvHD)", "assay": "Allogeneic bone marrow transplant GvHD model", "format": "in vivo, mouse", "method": "Allogeneic Bone marrow transplant: Recipient Balb/c mice were irradiated twice 3.75Gy (T=0 and T=4 h) in an X-ray source irradiator before transplantation at T=8 h. Treatment with antibiotics (Nopil) and analgesic (Dafalgan) was supplemented to drinking water 4 days before injection. Irradiated recipient Balb/c mice were transplanted with 5 million T cell depleted bone marrow+1 million splenocytes. Allogeneic recipient animals were treated with vehicle or 6-(4-tert-butylphenoxy)pyridin-3-amine subcutaneously at 20 mg/kg for two days immediately after allo-BM transplant, given a 10 days treatment holiday to recover body weight loss due to whole body irradiation and then treatment continued at 20 mg/kg. […] Animals were monitored for symptoms of GvHD development (severe body weight loss, alopecia and diarrhea.\nGraft vs host disease (GvHD) is an example of alloimmune disease that develops following allo-hematopoetic stem cell transplant (allo-HSCT) in humans. The activity of 6-(4-tert-butylphenoxy)pyridin-3-amine and a calcineurin inhibitor Cyclosprin A was investigated in a mouse model of GvHD following allo-bone marrow transplant. In this model, T cell depleted bone marrow cells (TCD-BM)+splenocytes from C57Bl6 mice were transplanted into irradiated Balb/c mice."}}}
{"smiles": "CC(C)(C)c1ccc(Oc2ccc(N)cn2)cc1", "note": "[6-(4-tert-butylphenoxy)pyridin-3-amine]", "values": [{"measurement": "expansion of Treg cells", "setting": "Treg cells", "result": "expansion of Treg cells"}, {"measurement": "Percentage downregulation of IL-6 in blood plasma", "setting": "IL-6", "result": "57% (day 3 on treatment)"}, {"measurement": "prevention of GvHD development (in words)", "setting": "[1]; allo-bone marrow transplant, compared with vehicle", "result": "prevents development of GvHD"}, {"measurement": "treated animals that developed GvHD", "setting": "[1]; allo-bone marrow transplant, 60% of vehicle treated animals died due to GvHD, FIG. 5", "result": 20, "unit": "%"}, {"measurement": "animals remained GvHD free", "setting": "[1]; allogeneic bone marrow+splenocyte transplantation, vehicle 40%, FIG. 5", "result": 80, "unit": "%"}]}
